How the values were obtained:
Experiment in all cases: Ambit KinomeScan screening
Type in all cases: binding
Conditions in all cases: CAL-130 10 μM
[1] = target: T1, ROCK1 (Homo sapiens, UniProt Q13464)
T1 construct: unspecified tag (tagged kinase); purchased Ambit (KinomeScan screening)
Summary of the method: (§1)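 Competition binding, 10 μM CAL-130 vs immobilized bait ligand; tagged kinases; readout % of control binding (lower = tighter); >35% = non-hit.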

[2] = target: T2, MYLK2 (Homo sapiens, UniProt Q9H1R3)
T2 construct: unspecified tag; purchased Ambit (KinomeScan screening panel)
Summary of the method: as §1

[3] = target: T3, DRAK2 (Homo sapiens, UniProt O94768)
T3 construct: unspecified tag ("tagged kinases"); purchased Ambit (KinomeScan screening service)
Summary of the method: as §1

[4] = target: T4, EPHA2 (Homo sapiens, UniProt P29317)
T4 construct: purchased Ambit (KinomeScan screening service)
Summary of the method: as §1

[5] = target: T5, AKT1 (Homo sapiens, UniProt P31749)
T5 construct: purchased Ambit (KinomeScan screening)
Summary of the method: as §1

[6] = target: T6, RPS6KA5 (Homo sapiens, UniProt O75582)
T6 construct: tag, kind not specified; purchased Ambit (KinomeScan screening service)
Summary of the method: as §1

[7] = target: T7, FRK (Homo sapiens, UniProt P42685)
T7 construct: unspecified tag ('tagged kinases'); purchased Ambit (KinomeScan screening service)
Summary of the method: as §1

[8] = target: T8, BMX (Homo sapiens, UniProt P51813)
T8 construct: unspecified tag ("tagged kinases"); purchased Ambit (KinomeScan screening)
Summary of the method: as §1

[9] = target: T9, SRPK3 (Homo sapiens, UniProt Q9UPE1)
T9 construct: purchased Ambit (KinomeScan screening service)
Summary of the method: as §1

[10] = target: T10, FLT3 (Homo sapiens, UniProt P36888)
T10 construct: unspecified tag; purchased Ambit (KinomeScan screening service)
Summary of the method: as §1

[11] = target: T11, BRSK1 (Homo sapiens, UniProt Q8TDC3)
T11 construct: unspecified tag ("tagged kinases"); purchased Ambit (KinomeScan screening)
Summary of the method: as §1

[12] = target: T12, CSNK1G1 (Homo sapiens, UniProt Q9HCP0)
T12 construct: purchased Ambit (KinomeScan screening service)
Summary of the method: as §1

[13] = target: T13, EPHA7 (Homo sapiens, UniProt Q15375)
T13 construct: purchased Ambit (KinomeScan screening service)
Summary of the method: as §1

[14] = target: T14, ERBB3 (Homo sapiens, UniProt P21860)
T14 construct: unspecified tag ("tagged kinases"); purchased Ambit (KinomeScan screening service)
Summary of the method: as §1

[15] = target: T15, PFTAIRE2 (Homo sapiens, UniProt Q96Q40)
T15 construct: unspecified tag ('tagged kinases'); purchased Ambit (KinomeScan screening)
Summary of the method: as §1

[16] = target: T16, PAK4 (Homo sapiens, UniProt O96013)
T16 construct: tag (kind not specified); purchased Ambit (KinomeScan screening service)
Summary of the method: as §1

[17] = target: T17, EPHA5 (Homo sapiens, UniProt P54756)
T17 construct: purchased Ambit (KinomeScan screening service)
Summary of the method: as §1

[18] = target: T18, RIPK4 (Homo sapiens, UniProt P57078)
T18 construct: unspecified tag (tagged kinase); purchased Ambit (KinomeScan screening)
Summary of the method: as §1

[19] = target: T19, MEK3 (Homo sapiens, UniProt P46734)
T19 construct: purchased Ambit (KinomeScan screening)
Summary of the method: as §1

[20] = target: T20, ERK2 (Homo sapiens, UniProt P28482)
T20 construct: unspecified tag ("tagged kinases"); purchased Ambit (KinomeScan screening service)
Summary of the method: as §1

[21] = target: T21, BIKE (Homo sapiens, UniProt Q9NSY1)
T21 construct: purchased Ambit (KinomeScan screening service)
Summary of the method: as §1

[22] = target: T22, DYRK1A (Homo sapiens, UniProt Q13627)
T22 construct: unspecified tag ("tagged kinases"); purchased Ambit (KinomeScan screening service)
Summary of the method: as §1

[23] = target: T23, TAK1 (Homo sapiens, UniProt O43318)
T23 construct: tag (kind not specified); purchased Ambit (KinomeScan screening service)
Summary of the method: as §1

[24] = target: T24, TRKC (Homo sapiens, UniProt Q16288)
T24 construct: tag, kind not specified; purchased Ambit (KinomeScan screening service)
Summary of the method: as §1

[25] = target: T25, SgK085 (Homo sapiens, UniProt Q86YV6)
T25 construct: tag, kind not specified; purchased Ambit (KinomeScan screening service)
Summary of the method: as §1

[26] = target: T26, CSNK2A2 (Homo sapiens, UniProt P19784)
T26 construct: purchased Ambit (KinomeScan screening service)
Summary of the method: as §1

[27] = target: T27, RPS6KA3 (Homo sapiens, UniProt P51812)
T27 construct: unspecified tag (tagged kinase); purchased Ambit (KinomeScan screening)
Summary of the method: as §1

[28] = target: T28, ERK4 (Homo sapiens, UniProt P31152)
T28 construct: unspecified tag ("tagged kinases"); purchased Ambit (KinomeScan screening service)
Summary of the method: as §1

[29] = target: T29, HIPK4 (Homo sapiens, UniProt Q8NE63)
T29 construct: Ambit (KinomeScan screening)
Summary of the method: as §1

[30] = target: T30, CAMK2B (Homo sapiens, UniProt Q13554)
T30 construct: purchased Ambit (KinomeScan screening)
Summary of the method: as §1

[31] = target: T31, MUSK (Homo sapiens, UniProt O15146)
T31 construct: unspecified tag; purchased Ambit (KinomeScan screening panel)
Summary of the method: as §1

[32] = target: T32, KIT(L576P) (Homo sapiens, UniProt P10721, L576P)
T32 construct: purchased Ambit (KinomeScan screening)
Summary of the method: as §1

[33] = target: T33, SRC (Homo sapiens, UniProt P12931)
T33 construct: tag, kind not specified; purchased Ambit (KinomeScan screening service)
Summary of the method: as §1

[34] = target: T34, PCTK1 (Homo sapiens, UniProt Q00536)
T34 construct: unspecified tag ('tagged kinases'); purchased Ambit (KinomeScan screening)
Summary of the method: as §1

[35] = target: T35, CDKL3 (Homo sapiens, UniProt Q8IVW4)
T35 construct: purchased Ambit (KinomeScan screening service)
Summary of the method: as §1

[36] = target: T36, MRCKB (Homo sapiens, UniProt Q9Y5S2)
T36 construct: unspecified tag ('tagged kinases'); purchased Ambit (KinomeScan screening)
Summary of the method: as §1

[37] = target: T37, PRKD1 (Homo sapiens, UniProt Q15139)
T37 construct: purchased Ambit (KinomeScan screening service)
Summary of the method: as §1

Measured: Percent of Control Binding

T12 sequence (Q9HCP0 whole entry): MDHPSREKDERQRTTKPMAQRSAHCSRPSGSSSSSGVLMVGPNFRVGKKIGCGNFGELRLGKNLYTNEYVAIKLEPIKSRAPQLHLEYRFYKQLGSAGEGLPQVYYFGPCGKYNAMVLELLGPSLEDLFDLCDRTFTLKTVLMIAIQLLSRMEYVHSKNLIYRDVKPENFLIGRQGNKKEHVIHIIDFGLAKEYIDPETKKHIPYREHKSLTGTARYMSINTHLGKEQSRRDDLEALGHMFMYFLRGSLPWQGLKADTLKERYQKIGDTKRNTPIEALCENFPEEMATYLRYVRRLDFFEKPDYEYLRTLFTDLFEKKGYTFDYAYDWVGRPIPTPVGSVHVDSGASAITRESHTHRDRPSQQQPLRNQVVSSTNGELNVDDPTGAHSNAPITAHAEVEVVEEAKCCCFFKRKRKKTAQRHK
T28 sequence (P31152 whole entry): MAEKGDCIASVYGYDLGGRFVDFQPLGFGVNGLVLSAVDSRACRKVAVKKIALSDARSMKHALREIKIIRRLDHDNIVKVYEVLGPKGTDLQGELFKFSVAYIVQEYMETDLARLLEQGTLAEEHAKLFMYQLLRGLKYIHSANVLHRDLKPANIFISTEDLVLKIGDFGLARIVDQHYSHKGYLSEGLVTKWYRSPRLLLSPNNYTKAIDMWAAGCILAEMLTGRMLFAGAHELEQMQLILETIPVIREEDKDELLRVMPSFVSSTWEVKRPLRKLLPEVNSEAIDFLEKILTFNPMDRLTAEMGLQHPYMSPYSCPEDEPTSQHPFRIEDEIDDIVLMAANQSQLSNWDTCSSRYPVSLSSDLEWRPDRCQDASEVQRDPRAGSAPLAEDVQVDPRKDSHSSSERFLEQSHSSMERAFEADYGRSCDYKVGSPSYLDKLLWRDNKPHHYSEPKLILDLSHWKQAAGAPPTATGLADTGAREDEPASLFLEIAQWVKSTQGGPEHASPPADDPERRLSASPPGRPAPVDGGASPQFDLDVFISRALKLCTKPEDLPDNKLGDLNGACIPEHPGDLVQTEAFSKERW
T36 sequence (Q9Y5S2 whole entry): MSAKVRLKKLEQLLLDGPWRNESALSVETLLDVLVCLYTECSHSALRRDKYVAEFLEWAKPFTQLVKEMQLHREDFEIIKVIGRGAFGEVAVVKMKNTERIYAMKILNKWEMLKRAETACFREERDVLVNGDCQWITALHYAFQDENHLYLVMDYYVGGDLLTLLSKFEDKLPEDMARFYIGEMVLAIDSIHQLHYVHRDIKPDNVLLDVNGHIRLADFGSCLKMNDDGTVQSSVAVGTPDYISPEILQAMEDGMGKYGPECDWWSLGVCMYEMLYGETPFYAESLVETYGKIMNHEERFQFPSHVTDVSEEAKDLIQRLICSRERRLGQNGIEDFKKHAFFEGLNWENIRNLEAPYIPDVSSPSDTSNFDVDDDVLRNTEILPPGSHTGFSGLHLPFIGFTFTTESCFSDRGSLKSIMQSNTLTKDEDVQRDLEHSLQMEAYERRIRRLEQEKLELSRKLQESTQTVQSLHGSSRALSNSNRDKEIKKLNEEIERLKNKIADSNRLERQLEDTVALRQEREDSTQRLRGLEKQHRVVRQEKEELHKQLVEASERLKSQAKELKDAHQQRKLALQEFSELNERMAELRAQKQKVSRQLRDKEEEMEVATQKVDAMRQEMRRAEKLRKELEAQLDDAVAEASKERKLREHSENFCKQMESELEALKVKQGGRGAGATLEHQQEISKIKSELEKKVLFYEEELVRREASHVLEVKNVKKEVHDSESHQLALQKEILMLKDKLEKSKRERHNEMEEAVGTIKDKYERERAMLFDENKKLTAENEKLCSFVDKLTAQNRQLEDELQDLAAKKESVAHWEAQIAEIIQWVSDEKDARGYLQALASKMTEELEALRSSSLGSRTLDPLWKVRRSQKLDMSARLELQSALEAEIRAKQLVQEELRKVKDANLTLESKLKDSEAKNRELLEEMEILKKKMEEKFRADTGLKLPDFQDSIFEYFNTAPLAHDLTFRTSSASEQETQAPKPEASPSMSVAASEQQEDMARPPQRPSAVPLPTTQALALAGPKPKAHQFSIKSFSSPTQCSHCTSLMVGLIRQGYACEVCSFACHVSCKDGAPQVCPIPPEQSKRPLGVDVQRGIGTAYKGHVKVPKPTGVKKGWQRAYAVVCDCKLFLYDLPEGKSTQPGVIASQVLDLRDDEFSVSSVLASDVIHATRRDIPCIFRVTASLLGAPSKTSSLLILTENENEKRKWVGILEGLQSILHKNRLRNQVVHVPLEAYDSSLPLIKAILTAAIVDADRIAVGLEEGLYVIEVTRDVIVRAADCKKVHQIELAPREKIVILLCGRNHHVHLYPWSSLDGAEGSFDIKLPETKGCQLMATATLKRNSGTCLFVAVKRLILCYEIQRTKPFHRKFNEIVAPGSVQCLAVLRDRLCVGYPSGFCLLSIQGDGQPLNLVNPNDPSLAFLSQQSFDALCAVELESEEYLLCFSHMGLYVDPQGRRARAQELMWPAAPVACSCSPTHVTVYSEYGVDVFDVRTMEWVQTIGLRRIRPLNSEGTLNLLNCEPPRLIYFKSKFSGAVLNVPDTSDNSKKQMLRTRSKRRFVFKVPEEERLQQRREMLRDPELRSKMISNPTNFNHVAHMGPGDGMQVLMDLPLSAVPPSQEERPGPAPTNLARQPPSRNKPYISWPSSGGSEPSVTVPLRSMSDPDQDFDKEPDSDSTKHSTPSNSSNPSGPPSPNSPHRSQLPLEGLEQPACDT
T7 sequence (P42685 whole entry): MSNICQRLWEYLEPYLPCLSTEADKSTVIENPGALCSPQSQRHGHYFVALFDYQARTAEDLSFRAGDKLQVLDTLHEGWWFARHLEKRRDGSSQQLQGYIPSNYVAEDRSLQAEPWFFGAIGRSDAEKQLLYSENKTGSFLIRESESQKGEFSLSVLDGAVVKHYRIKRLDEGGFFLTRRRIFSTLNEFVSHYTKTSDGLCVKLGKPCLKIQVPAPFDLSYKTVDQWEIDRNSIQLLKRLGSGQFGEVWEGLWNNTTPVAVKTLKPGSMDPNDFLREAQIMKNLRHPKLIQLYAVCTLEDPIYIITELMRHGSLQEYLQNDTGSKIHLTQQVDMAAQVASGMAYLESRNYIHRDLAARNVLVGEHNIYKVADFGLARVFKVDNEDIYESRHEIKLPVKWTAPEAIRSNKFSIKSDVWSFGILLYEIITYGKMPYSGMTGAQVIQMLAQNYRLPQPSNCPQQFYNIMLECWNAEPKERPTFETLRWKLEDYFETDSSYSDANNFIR
T18 sequence (P57078 whole entry): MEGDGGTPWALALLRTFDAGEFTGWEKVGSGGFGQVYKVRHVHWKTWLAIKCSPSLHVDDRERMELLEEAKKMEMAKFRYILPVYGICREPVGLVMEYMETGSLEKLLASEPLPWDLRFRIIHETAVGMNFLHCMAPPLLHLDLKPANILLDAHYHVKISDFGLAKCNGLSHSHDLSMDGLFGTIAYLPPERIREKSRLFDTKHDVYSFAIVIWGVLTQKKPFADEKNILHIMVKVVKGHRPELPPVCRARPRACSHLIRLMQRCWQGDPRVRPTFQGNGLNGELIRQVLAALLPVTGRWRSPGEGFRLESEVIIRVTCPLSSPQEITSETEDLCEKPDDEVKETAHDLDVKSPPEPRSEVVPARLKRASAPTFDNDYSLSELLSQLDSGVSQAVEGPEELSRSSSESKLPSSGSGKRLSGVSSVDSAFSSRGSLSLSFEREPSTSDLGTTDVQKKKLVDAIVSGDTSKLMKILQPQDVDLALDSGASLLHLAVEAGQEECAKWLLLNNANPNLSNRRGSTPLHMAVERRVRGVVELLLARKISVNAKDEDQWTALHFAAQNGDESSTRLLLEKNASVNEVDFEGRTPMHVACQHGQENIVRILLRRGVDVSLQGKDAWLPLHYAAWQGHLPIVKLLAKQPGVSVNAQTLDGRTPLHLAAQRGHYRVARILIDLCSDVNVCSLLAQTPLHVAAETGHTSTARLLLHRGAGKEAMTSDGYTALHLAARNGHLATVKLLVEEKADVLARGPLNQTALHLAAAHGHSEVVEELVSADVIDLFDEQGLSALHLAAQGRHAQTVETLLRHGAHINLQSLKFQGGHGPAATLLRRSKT
T8 sequence (P51813 whole entry): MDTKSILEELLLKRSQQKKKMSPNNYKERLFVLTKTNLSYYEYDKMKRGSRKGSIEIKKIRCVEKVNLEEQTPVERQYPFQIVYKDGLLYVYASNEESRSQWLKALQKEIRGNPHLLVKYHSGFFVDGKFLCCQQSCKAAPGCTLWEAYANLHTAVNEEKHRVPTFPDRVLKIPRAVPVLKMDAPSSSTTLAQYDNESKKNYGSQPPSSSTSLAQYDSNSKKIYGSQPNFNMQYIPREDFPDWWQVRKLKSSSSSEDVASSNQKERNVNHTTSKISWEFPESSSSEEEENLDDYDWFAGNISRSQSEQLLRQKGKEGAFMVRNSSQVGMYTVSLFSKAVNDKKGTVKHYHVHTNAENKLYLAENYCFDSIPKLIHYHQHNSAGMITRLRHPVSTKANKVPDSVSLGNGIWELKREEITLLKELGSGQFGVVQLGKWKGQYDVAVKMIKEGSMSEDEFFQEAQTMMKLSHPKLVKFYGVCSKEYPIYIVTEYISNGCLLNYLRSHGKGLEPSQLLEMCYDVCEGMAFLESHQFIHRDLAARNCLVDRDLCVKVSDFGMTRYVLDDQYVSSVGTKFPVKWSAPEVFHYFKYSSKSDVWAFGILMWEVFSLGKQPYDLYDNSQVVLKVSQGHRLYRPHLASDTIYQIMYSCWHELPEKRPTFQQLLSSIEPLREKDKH

Cc1ccccc1-n1c(C(C)Nc2nc(N)nc3nc[nH]c23)nc2cccc(C)c2c1=O (stereo not shown) [CAL-130]
100%: [1] | [2] | [3] | [4] | [5] | [6] | [7] | [8] | [9] | [10] | [11] | [12] | [13] | [14] | [15] | [16] | [17] | [18] | [19] | [20] | [21] | [22] | [23] | [24] | [25] | [26] | [27] | [28] | [29] | [30] | [31] | [32] | [33] | [34] | [35] | [36] | [37]
